ChEMBL document CHEMBL5500402, “Potent, Selective Agonists for the Cannabinoid-like Orphan G Protein-Coupled Receptor GPR18: A Promising Drug Target for Cancer and Immunity” (J Med Chem, 2024)

Tests used:
[1] = molecular target: T1, N-arachidonyl glycine receptor (Homo sapiens, UniProt Q14330); assay: Agonist activity at human GPR18 expressed in CHO cells assessed as activation by measuring beta-arrestin2 recruitment incubated for 90 mins by luminescence based assay; type: functional, cell-based
T1 sequence (Q14330 whole entry): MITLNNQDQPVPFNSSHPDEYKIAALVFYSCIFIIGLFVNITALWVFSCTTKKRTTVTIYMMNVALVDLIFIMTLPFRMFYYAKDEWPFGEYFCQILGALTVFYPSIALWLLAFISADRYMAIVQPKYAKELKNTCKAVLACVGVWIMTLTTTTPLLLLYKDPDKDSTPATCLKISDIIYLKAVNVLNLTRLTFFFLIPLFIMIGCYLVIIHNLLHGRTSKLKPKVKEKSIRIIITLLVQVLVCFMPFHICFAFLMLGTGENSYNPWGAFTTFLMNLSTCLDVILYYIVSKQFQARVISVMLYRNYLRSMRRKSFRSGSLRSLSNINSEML

[2] = molecular target: T2, N-arachidonyl glycine receptor (Mus musculus, UniProt Q8K1Z6)
T2 sequence (Q8K1Z6 whole entry): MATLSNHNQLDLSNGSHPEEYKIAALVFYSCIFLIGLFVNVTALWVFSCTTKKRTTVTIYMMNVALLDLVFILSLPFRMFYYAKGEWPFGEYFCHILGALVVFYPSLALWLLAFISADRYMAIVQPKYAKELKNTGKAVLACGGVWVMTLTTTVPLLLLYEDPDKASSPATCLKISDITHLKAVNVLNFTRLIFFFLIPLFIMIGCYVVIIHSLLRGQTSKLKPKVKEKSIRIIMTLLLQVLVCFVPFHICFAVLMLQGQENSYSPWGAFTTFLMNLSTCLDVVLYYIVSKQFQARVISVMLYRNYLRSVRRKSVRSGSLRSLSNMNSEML
Description: Agonist activity at mouse GPR18 expressed in CHO cells assessed as activation by measuring beta-arrestin2 recruitment incubated for 90 mins by luminescence based assay

[3] = molecular target: Cannabinoid receptor 1 (Homo sapiens, UniProt P21554); assay: Displacement of [3H]-CP55940 from human CB1 receptor expressed in CHO cells assessed as inhibition constant by radioligand competition binding assay; type: cell-based
Cannabinoid receptor 1, sequence (P21554 whole entry): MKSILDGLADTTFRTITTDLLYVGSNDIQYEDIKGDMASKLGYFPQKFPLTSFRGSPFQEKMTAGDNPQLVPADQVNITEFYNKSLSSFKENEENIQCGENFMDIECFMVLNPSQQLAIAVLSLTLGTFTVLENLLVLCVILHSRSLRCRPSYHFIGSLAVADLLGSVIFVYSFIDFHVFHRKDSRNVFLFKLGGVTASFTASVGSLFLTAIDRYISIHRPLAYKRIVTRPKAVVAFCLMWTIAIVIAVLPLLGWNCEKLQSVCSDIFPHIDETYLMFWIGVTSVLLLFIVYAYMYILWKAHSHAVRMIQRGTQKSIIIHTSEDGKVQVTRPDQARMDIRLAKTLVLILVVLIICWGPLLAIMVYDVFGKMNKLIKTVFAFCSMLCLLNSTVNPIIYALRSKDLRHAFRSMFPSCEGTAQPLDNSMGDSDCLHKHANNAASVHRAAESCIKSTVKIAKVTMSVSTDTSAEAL

[4] = molecular target: Cannabinoid receptor 2 (Homo sapiens, UniProt P34972); assay: Displacement of [3H]-CP55940 from human CB2 receptor expressed in CHO cells assessed as inhibition constant by radioligand competition binding assay; type: cell-based
Cannabinoid receptor 2, sequence (P34972 whole entry): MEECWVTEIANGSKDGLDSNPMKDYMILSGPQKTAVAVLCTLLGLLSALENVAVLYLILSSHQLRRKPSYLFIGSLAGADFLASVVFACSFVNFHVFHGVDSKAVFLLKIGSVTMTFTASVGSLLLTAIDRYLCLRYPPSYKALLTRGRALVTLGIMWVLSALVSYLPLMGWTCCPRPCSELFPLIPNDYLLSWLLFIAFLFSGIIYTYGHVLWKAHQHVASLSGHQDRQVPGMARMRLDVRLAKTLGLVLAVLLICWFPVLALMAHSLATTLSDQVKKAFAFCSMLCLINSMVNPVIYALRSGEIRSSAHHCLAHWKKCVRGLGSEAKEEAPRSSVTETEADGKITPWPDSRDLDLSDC

[5] = molecular target: T1, N-arachidonyl glycine receptor; assay: Agonist activity at human GPR18-eYFP and Renilla luc expressed in CHO cells assessed as beta-arrestin2 recruitment by BRET/beta-arrestin2 enzyme complementation assay
[6] = molecular target: T3, G-protein coupled receptor 55 (Homo sapiens, UniProt Q9Y2T6); assay: Agonist activity at human GPR55 expressed in CHO-K1 cells by beta-arrestin2 recruitment assay
T3 sequence (Q9Y2T6 whole entry): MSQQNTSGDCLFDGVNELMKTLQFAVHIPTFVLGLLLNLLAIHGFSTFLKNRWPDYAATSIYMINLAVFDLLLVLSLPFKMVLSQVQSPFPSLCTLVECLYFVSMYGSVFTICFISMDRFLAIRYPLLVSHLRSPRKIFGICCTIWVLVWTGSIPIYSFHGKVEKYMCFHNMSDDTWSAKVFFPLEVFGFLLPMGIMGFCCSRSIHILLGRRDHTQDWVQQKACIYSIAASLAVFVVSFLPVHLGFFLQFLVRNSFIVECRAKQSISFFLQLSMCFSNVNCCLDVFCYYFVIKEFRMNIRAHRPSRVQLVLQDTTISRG

[7] = molecular target: T3, G-protein coupled receptor 55; assay: Antagonist activity at human GPR55 expressed in CHO-K1 cells assessed as inhibition of beta-arrestin2 recruitment
[8] = molecular target: G-protein coupled receptor 183 (Homo sapiens, UniProt P32249); assay: Agonist activity at human GPR183 expressed in PathHunter CHO-K1 cells assessed as activation by measuring beta-arrestin2 recruitment
G-protein coupled receptor 183, sequence (P32249 whole entry): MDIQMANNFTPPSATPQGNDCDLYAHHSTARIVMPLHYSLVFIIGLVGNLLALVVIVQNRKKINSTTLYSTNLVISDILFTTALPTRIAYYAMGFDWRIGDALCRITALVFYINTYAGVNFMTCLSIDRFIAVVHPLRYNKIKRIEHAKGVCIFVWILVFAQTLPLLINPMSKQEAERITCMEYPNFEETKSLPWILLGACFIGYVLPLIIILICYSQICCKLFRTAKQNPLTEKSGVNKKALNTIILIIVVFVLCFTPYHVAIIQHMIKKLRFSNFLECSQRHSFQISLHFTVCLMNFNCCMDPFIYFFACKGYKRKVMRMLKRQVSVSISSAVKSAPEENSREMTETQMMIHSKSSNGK

[9] = molecular target: T1, N-arachidonyl glycine receptor; assay: Antagonist activity at human GPR18 receptor expressed in CHO cells assessed as inhibition of THC-induced activation by measuring beta-arrestin2 recruitment
[10] = molecular target: T1, N-arachidonyl glycine receptor

Compound	EC50 [1]	EC50 [2]	also measured
CCn1c(=O)n(C)c(=O)c2c1nc(NCCc1c[nH]c3ccccc13)n2Cc1ccc(Cl)cc1	95 nM	297 nM	–
CCCn1c(NCCc2c[nH]c3ccccc23)nc2c1c(=O)n(C)c(=O)n2C	196 nM	299 nM	–
CC(=O)Nc1ccc(Cn2c(NCCc3c[nH]c4ccccc34)nc3c2c(=O)n(C)c(=O)n3C)cc1	218 nM	281 nM	–
Cn1c(=O)c2c(nc(NCCc3c[nH]c4ccccc34)n2Cc2ccc(S(N)(=O)=O)cc2)n(C)c1=O	6640 nM	10900 nM	–
Cn1c(=O)c2c(nc3n2CCCCN3CCc2c[nH]c3ccccc23)n(C)c1=O	–	582 nM	–
Cn1c(=O)c2c(nc(NCCc3c[nH]c4ccccc34)n2Cc2c(Cl)cccc2Cl)n(C)c1=O	–	559 nM	–
Cn1c(=O)c2c(nc(NCCc3c[nH]c4ccccc34)n2Cc2ccc(C(F)(F)F)cc2)n(C)c1=O	136 nM	216 nM	–
COc1ccc(Cn2c(NCCc3c[nH]c4ccccc34)nc3c2c(=O)n(C)c(=O)n3C)cc1	138 nM	171 nM	Ki ([3]; cho): Not Active
Cn1c(=O)c2c(nc(NCCc3c[nH]c4ccccc34)n2Cc2ccc([N+](=O)[O-])cc2)n(C)c1=O	–	280 nM	–
C=C(C)[C@@H]1CCC(C)=C[C@H]1c1c(O)cc(O)cc1CCCCC	> 10000 nM	> 10000 nM	–
Cn1c(=O)[nH]c2nc(NCCc3c[nH]c4ccccc34)n(Cc3ccc(Cl)cc3)c2c1=O	206 nM	290 nM	–
Cn1c(=O)c2c(nc(NCCc3c[nH]c4ccccc34)n2Cc2ccc(Cl)cc2)n(Cc2ccccc2)c1=O	> 10000 nM	393 nM	–
Cn1c(=O)c2c(nc(NCCc3c[nH]c4ccccc34)n2Cc2ccc(F)c(F)c2)n(C)c1=O	142 nM	161 nM	–
Cc1ccc(Cn2c(NCCc3c[nH]c4ccccc34)nc3c2c(=O)n(C)c(=O)n3C)cc1	24 nM	46 nM	Ki [4]: 827 nM; Ki ([3]; read-out: Ki): 3480 nM
Cn1c(=O)c2c(nc(NCCc3c[nH]c4ccccc34)n2Cc2ccccc2F)n(C)c1=O	137 nM	128 nM	–
Cn1c(=O)c2c(nc(NCCc3c[nH]c4ccccc34)n2Cc2ccc(Cl)c(Cl)c2)n(C)c1=O	74 nM	90 nM	–
CCCNC(=O)c1ccc(Cn2c(NCCc3c[nH]c4ccccc34)nc3c2c(=O)n(C)c(=O)n3C)cc1	1410 nM	1270 nM	–
Cn1c(=O)c2c(nc(NCCc3c[nH]c4ccccc34)n2Cc2cccc(F)c2)n(C)c1=O	–	301 nM	–
Cn1c(=O)c2c(nc(NCCc3c[nH]c4ccccc34)n2CCF)n(C)c1=O	1390 nM	2640 nM	–
Cn1c(=O)c2c(nc(NCCc3c[nH]c4ccccc34)n2Cc2ccc(F)cc2)n(C)c1=O	54 nM	124 nM	–

Compound	EC50 [1]	EC50 [2]	also measured
Cn1c(=O)c2c(nc(NCCc3c[nH]c4ccccc34)n2Cc2ccc(N)cc2)n(C)c1=O	–	241 nM	–
CCC#CCn1c(NCCc2c[nH]c3ccccc23)nc2c1c(=O)n(C)c(=O)n2C	254 nM	371 nM	–
Cn1c(=O)c2c(nc(NCCc3c[nH]c4ccccc34)n2CCOc2ccc(Cl)cc2)n(C)c1=O	–	444 nM	–
Cn1c(=O)c2c(nc(NCCc3c[nH]c4ccccc34)n2Cc2cccc(Br)c2)n(C)c1=O	10 nM	180 nM	Ki [4]: 344 nM
Cn1c(=O)c2c(nc(NCCc3c[nH]c4ccccc34)n2CCc2ccccc2)n(C)c1=O	442 nM	288 nM	–
COc1cccc(Cn2c(NCCc3c[nH]c4ccccc34)nc3c2c(=O)n(C)c(=O)n3C)c1	166 nM	245 nM	–
Cn1c(=O)c2c(nc(NCCc3c[nH]c4ccccc34)n2C)n(C)c1=O	902 nM	2970 nM	–
CC(C)c1ccc(Cn2c(NCCc3c[nH]c4ccccc34)nc3c2c(=O)n(C)c(=O)n3C)cc1	–	150 nM	Ki [4]: 150 nM; Ki ([3]; read-out: Ki): 6280 nM
Cn1c(=O)c2c(nc(NCCc3c[nH]c4ccccc34)n2Cc2ccc(Cl)cc2)n(CCO)c1=O	–	1200 nM	–
C=CCCn1c(NCCc2c[nH]c3ccccc23)nc2c1c(=O)n(C)c(=O)n2C	–	447 nM	–
Cn1c(=O)c2c(nc(NCCc3c[nH]c4ccccc34)n2Cc2ccc(Cl)cc2)n(C)c1=O	19 nM	54 nM	EC50 [5]: 38 nM; Ki [4]: 481 nM; EC50 [6]: > 10000 nM; IC50 [7]: > 10000 nM; Ki ([3]; read-out: Ki): 1180 nM
Cn1c(=O)c2c(nc(NCCc3c[nH]c4ccccc34)n2Cc2ccc(Br)cc2)n(C)c1=O	–	58 nM	–
Cn1c(=O)c2c(nc(NCCc3c[nH]c4ccccc34)n2Cc2ccc(Cl)cc2)n(CC#N)c1=O	1220 nM	981 nM	–
Cn1c(=O)c2c(nc(NCCc3c[nH]c4ccccc34)n2CCC2CCCCC2)n(C)c1=O	–	127 nM	–
Cn1c(=O)c2c(nc(NCCc3c[nH]c4ccccc34)n2Cc2ccc(Cl)cc2Cl)n(C)c1=O	64 nM	244 nM	–
CCCNS(=O)(=O)c1ccc(Cn2c(NCCc3c[nH]c4ccccc34)nc3c2c(=O)n(C)c(=O)n3C)cc1	–	1300 nM	–
CCCCC/C=C\C/C=C\C/C=C\C/C=C\CCCC(=O)NCC(=O)O [ARACHIDONOYL GLYCINE]	> 10000 nM	> 10000 nM	–
CCCCCc1cc(O)c2c(c1)OC(C)(C)[C@@H]1CCC(C)=C[C@@H]21 [DRONABINOL]	3370 nM	> 10000 nM	EC50 [8]: 38 nM
Cn1c(=O)c2c(nc(NCCc3c[nH]c4ccccc34)n2CCOc2ccccc2)n(C)c1=O	–	334 nM	–
CCCn1c(=O)n(C)c(=O)c2c1nc(NCCc1c[nH]c3ccccc13)n2Cc1ccc(Cl)cc1	> 10000 nM	> 10000 nM	–

Compound	EC50 [1]	EC50 [2]	also measured
Cn1c(=O)c2c(nc(NCCc3c[nH]c4ccccc34)n2Cc2ccc(Cl)cc2)n(CC(F)(F)F)c1=O	–	711 nM	–
Cn1c(=O)c2c(nc3n2CCCN3CCc2c[nH]c3ccccc23)n(C)c1=O	–	1780 nM	–
Cn1c(=O)c2c(nc(NCCc3c[nH]c4ccccc34)n2Cc2ccc(F)c(Cl)c2)n(C)c1=O	193 nM	251 nM	–
Cn1c(=O)c2c(nc(NCCc3c[nH]c4ccccc34)n2CCCc2ccccc2)n(C)c1=O	–	230 nM	–
Cn1c(=O)c2c(nc(NCCc3c[nH]c4ccccc34)n2Cc2ccccc2)n(C)c1=O	149 nM	194 nM	–
Cn1c(=O)c2c(nc(NCCc3c[nH]c4ccccc34)n2Cc2ccc(C(N)=O)cc2)n(C)c1=O	3600 nM	4000 nM	–
Cn1c(=O)c2c(nc(NCCc3c[nH]c4ccccc34)n2Cc2ccccc2Br)n(C)c1=O	189 nM	156 nM	Ki [4]: 1690 nM
O=C1/C(=C/c2cccc(OCCCCCCOc3ccc(Cl)cc3)c2)N=C2SCCCN12	–	–	IC50 [9]: 487 nM; IC50 [10]: 9910 nM
C#CCn1c(NCCc2c[nH]c3ccccc23)nc2c1c(=O)n(C)c(=O)n2C	247 nM	318 nM	–
Cn1c(=O)c2c(nc(NCCc3c[nH]c4ccccc34)n2Cc2ccc(Cl)c(F)c2)n(C)c1=O	–	121 nM	–
CNS(=O)(=O)c1ccc(Cn2c(NCCc3c[nH]c4ccccc34)nc3c2c(=O)n(C)c(=O)n3C)cc1	3670 nM	3630 nM	–
Cn1c(=O)c2c(nc(NCCc3c[nH]c4ccccc34)n2Cc2cccc(Cl)c2)n(C)c1=O	71 nM	220 nM	Ki [4]: 896 nM
COC(=O)c1ccc(Cn2c(NCCc3c[nH]c4ccccc34)nc3c2c(=O)n(C)c(=O)n3C)cc1	469 nM	488 nM	–
Cn1c(=O)c2c(nc(NCCc3c[nH]c4ccccc34)n2Cc2ccccc2Cl)n(C)c1=O	60 nM	157 nM	Ki [4]: > 10000 nM; Ki ([3]; read-out: Ki): > 10000 nM
CCn1c(NCCc2c[nH]c3ccccc23)nc2c1c(=O)n(C)c(=O)n2C	190 nM	379 nM	–
CCCCn1c(NCCc2c[nH]c3ccccc23)nc2c1c(=O)n(C)c(=O)n2C	151 nM	207 nM	–
Cn1c(=O)c2c(nc(NCCc3c[nH]c4ccccc34)n2Cc2ccc(Cl)cc2)n(CCF)c1=O	351 nM	398 nM	–
C=CCn1c(NCCc2c[nH]c3ccccc23)nc2c1c(=O)n(C)c(=O)n2C	169 nM	379 nM	–
